Counter-ions that a name gives are not always drawn. Like-named read-outs stand apart in the source and are kept apart here.
Key:
[1] = Solubility (Sol., Table 1); type: physicochemical
[2] = system: Candida albicans (ATCC 90029); assay: Minimum inhibitory concentration (MIC) assay, Example 33; type: cell-based; settings: for MIC: Candida albicans; for MIC Candida albicans: sulfate
Outline: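 Broth microdilution per CLSI guidelines in RPMI 1640; inoculum set to OD530 0.08–0.13, diluted 1:50 then 1:20 to 2× strength and mixed 1:2 with 2-fold serial compound dilutions. Incubated at 35° C; MIC read per CLSI.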

[3] = system: Pseudomonas aeruginosa (ATCC 27853); assay: as above; type: cell-based
Outline: (§1)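 CLSI broth microdilution; CAMHB; serial 2-fold dilutions; inoculum 0.5 McFarland (OD600 0.08-0.13), diluted 1:100 as 2× stock, added 1:2; 35° C incubation; MIC read by CLSI criteria.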

[4] = system: Escherichia coli (ATCC 25922); assay: as above; type: cell-based
Outline: as §1

[5] = pH (Table 1); type: physicochemical
[6] = system: Aspergillus niger (CMCC 98003); assay: Minimum inhibitory concentration (MIC) assay, Example 33; type: cell-based; settings: for MIC Aspergillus niger: n = 2
Outline: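 Broth microdilution MIC per CLSI guidelines in RPMI 1640 with serial 2-fold compound dilutions. Spore suspension from sporulating colonies adjusted to OD530 0.09-0.13, diluted 1:50 as 2× inoculum and added 1:2 to drug wells; plates incubated at 35 °C and MIC read per CLSI.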

[7] = system: Staphulococcus aureus (ATCC 29213); assay: as above; type: cell-based, Staphylococcus aureus
Outline: as §1

[8] = system: Pseudomonas aeruginosa (ATCC 27853); assay: Time kill study, Example 33 (0 to 5 min); type: cell-based; settings: 1×MIC
Outline: (§2)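 Per CLSI guidelines, strain suspensions were mixed 1:1 by volume with compound solution; samples taken at 0 min, 30 sec, 1 min and 5 min were diluted and plated on agar. Colonies were counted after 24 to 48 hrs incubation and viable counts reported as Log10 CFU/mL.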

[9] = system: Escherichia coli (ATCC 25922); assay: Time kill study, Example 33 (0 to 5 min); type: cell-based; settings: 1×MIC
Outline: as §2

[10] = system: Staphylococcus aureus (ATCC 29213); assay: Time kill study, Example 33 (0 to 5 min); type: cell-based; settings: 1×MIC
Outline: as §2

[11] = system: Candida albicans (ATCC 90029); assay: Time kill study, Example 33 (0 to 5 min); type: cell-based; settings: 1×MIC, sulfate
Outline: as §2

[12] = ATCC90029, read-out: MIC Candida albicans, n = 1
[13] = ATCC90029, read-out: MIC Candida albicans, n = 2
[14] = Pseudomonas aeruginosa, ATCC27853, Table 19 summary
[15] = Pseudomonas aeruginosa, ATCC27853, read-out: MIC P. aeruginosa, n = 1
[16] = Pseudomonas aeruginosa, ATCC27853, read-out: MIC P. aeruginosa, n = 2
[17] = Escherichia coli, ATCC25922, Table 19 summary of Example 33 and Example 35
[18] = Escherichia coli, ATCC25922, read-out: MIC E. coli, n = 1
[19] = Escherichia coli, ATCC25922, read-out: MIC E. coli, n = 2
[20] = Aspergillus niger, CMCC98003, read-out: MIC Aspergillus niger
[21] = Staphylococcus aureus, ATCC29213, Table 19 summary
[22] = Staphylococcus aureus, ATCC29213, read-out: MIC S. aureus, n = 1
[23] = Staphylococcus aureus, ATCC29213, read-out: MIC S. aureus, n = 2

CCCCCCCCCCCC(C)OC(=O)C(C)N(C)C (centres unmarked) [Nex-64, Tridecan-2-yl 2-(dimethylamino)propanoate hydrochloride]
Sol. [1]: 44%
MIC ([2]; ATCC90029, Table 19 summary): > 12500 µg/mL
MIC [2, 12]: > 12500 µg/mL
MIC [2, 13]: > 12500 µg/mL
MIC [3, 14]: 6250 µg/mL
MIC [3, 15]: 6250 µg/mL
MIC [3, 16]: 6250 µg/mL
MIC [4, 17]: 3130 µg/mL
MIC [4, 18]: 3130 µg/mL
MIC [4, 19]: 3130 µg/mL
pH [5]: 1.95
MIC ([6]; Aspergillus niger, CMCC98003): > 12500 µg/mL
MIC [6, 20]: > 12500 µg/mL
MIC Aspergillus niger [6]: >12500 µg/mL
MIC [7, 21]: 3130 µg/mL
MIC [7, 22]: 3130 µg/mL
MIC [7, 23]: 3130 µg/mL
Viable counts, Pseudomonas aeruginosa time kill study ([8]; 0.5 min): 4 Log10 CFU/mL
Viable counts, Pseudomonas aeruginosa time kill study ([8]; 1 min): <3.70 Log10 CFU/mL
Viable counts, Pseudomonas aeruginosa time kill study ([8]; 5 min): <3.52 Log10 CFU/mL
Viable counts, Pseudomonas aeruginosa time kill study ([8]; time 0): 5.45 Log10 CFU/mL
Viable counts, Escherichia coli time kill study ([9]; 0.5 min): 5.73 Log10 CFU/mL
Viable counts, Escherichia coli time kill study ([9]; 1 min): 5.7 Log10 CFU/mL
Viable counts, Escherichia coli time kill study ([9]; 5 min): <3.52 Log10 CFU/mL
Viable counts, Escherichia coli time kill study ([9]; time 0): 5.71 Log10 CFU/mL
Viable counts, Staphylococcus aureus time kill study ([10]; 0.5 min): 6.41 Log10 CFU/mL
Viable counts, Staphylococcus aureus time kill study ([10]; 1 min): 6.38 Log10 CFU/mL
Viable counts, Staphylococcus aureus time kill study ([10]; 5 min): 6.36 Log10 CFU/mL
Viable counts, Staphylococcus aureus time kill study ([10]; time 0): 6.34 Log10 CFU/mL

CCCCCCCCCCCCOC(=O)C(C)(C)N(C)C [Nex-58, Dodecyl 2-(dimethylamino)-2-methylpropanoate hydrochloride]
Sol. [1]: 51%
MIC ([2]; ATCC90029, Table 19 summary): > 12500 µg/mL
MIC [2, 12]: > 12500 µg/mL
MIC [2, 13]: > 12500 µg/mL
MIC [3, 14]: 6250 µg/mL
MIC [3, 15]: 6250 µg/mL
MIC [3, 16]: 6250 µg/mL
MIC [4, 17]: 3130 µg/mL
MIC [4, 18]: 3130 µg/mL
MIC [4, 19]: 3130 µg/mL
pH [5]: 2.27
MIC ([6]; Aspergillus niger, CMCC98003): > 12500 µg/mL
MIC [6, 20]: > 12500 µg/mL
MIC Aspergillus niger [6]: >12500 µg/mL
MIC [7, 22]: 3130 µg/mL
MIC [7, 23]: 1560 µg/mL
Viable counts, Pseudomonas aeruginosa time kill study ([8]; 0.5 min): <4.0 Log10 CFU/mL
Viable counts, Pseudomonas aeruginosa time kill study ([8]; 1 min): <3.70 Log10 CFU/mL
Viable counts, Pseudomonas aeruginosa time kill study ([8]; 5 min): <3.52 Log10 CFU/mL
Viable counts, Pseudomonas aeruginosa time kill study ([8]; time 0): 5.54 Log10 CFU/mL
Viable counts, Escherichia coli time kill study ([9]; 0.5 min): <4.0 Log10 CFU/mL
Viable counts, Escherichia coli time kill study ([9]; 1 min): <3.70 Log10 CFU/mL
Viable counts, Escherichia coli time kill study ([9]; 5 min): <3.52 Log10 CFU/mL
Viable counts, Escherichia coli time kill study ([9]; time 0): 5.91 Log10 CFU/mL
Viable counts, Staphylococcus aureus time kill study ([10]; 0.5 min): 6.15 Log10 CFU/mL
Viable counts, Staphylococcus aureus time kill study ([10]; 1 min): 6.11 Log10 CFU/mL
Viable counts, Staphylococcus aureus time kill study ([10]; 5 min): 5.81 Log10 CFU/mL
Viable counts, Staphylococcus aureus time kill study ([10]; time 0): 6.26 Log10 CFU/mL

CCCCCCCCCCCCCOC(=O)C(C)N(C)C (centres unmarked) [Nex-69, Tridecyl 2-(dimethylamino)propanoate hydrochloride]
Sol. [1]: 51%
MIC ([2]; ATCC90029, Table 19 summary): 12500 µg/mL
MIC [2, 12]: 12500 µg/mL
MIC [2, 13]: 12500 µg/mL
MIC [3, 14]: 6250 µg/mL
MIC [3, 15]: 6250 µg/mL
MIC [3, 16]: 6250 µg/mL
MIC [4, 17]: 3130 µg/mL
MIC [4, 18]: 3130 µg/mL
MIC [4, 19]: 3130 µg/mL
pH [5]: 1.64
MIC ([6]; Aspergillus niger, CMCC98003): > 12500 µg/mL
MIC [6, 20]: > 12500 µg/mL
MIC Aspergillus niger [6]: >12500 µg/mL
MIC [7, 21]: 3130 µg/mL
MIC [7, 22]: 3130 µg/mL
MIC [7, 23]: 3130 µg/mL
Viable counts, Pseudomonas aeruginosa time kill study ([8]; 0.5 min): 5.75 Log10 CFU/mL
Viable counts, Pseudomonas aeruginosa time kill study ([8]; 1 min): 5.74 Log10 CFU/mL
Viable counts, Pseudomonas aeruginosa time kill study ([8]; 5 min): 5.21 Log10 CFU/mL
Viable counts, Pseudomonas aeruginosa time kill study ([8]; time 0): 5.65 Log10 CFU/mL
Viable counts, Escherichia coli time kill study ([9]; 0.5 min): 5.72 Log10 CFU/mL
Viable counts, Escherichia coli time kill study ([9]; 1 min): 5.54 Log10 CFU/mL
Viable counts, Escherichia coli time kill study ([9]; 5 min): <3.52 Log10 CFU/mL
Viable counts, Escherichia coli time kill study ([9]; time 0): 6.25 Log10 CFU/mL
Viable counts, Staphylococcus aureus time kill study ([10]; 0.5 min): 6.39 Log10 CFU/mL
Viable counts, Staphylococcus aureus time kill study ([10]; 1 min): 6.31 Log10 CFU/mL
Viable counts, Staphylococcus aureus time kill study ([10]; 5 min): 6.38 Log10 CFU/mL
Viable counts, Staphylococcus aureus time kill study ([10]; time 0): 6.41 Log10 CFU/mL

CCCCCCCCCCCCOC(=O)C(C(C)O)N(C)C (centres unmarked) [Nex-51, Dodecyl 2-(dimethylamino)-3-hydroxybutanoate hydrochloride]
Sol. [1]: 98%
pH [5]: 0.56

CCCCCCCCCCCCOC(=O)C(C)N(C)C (centres unmarked) [Nex-03, Dodecyl 2-(dimethylamino)propanoate sulfate]
MIC Candida albicans ([2]; n = 1): 12500 µg/mL
MIC Candida albicans ([2]; n = 2): 6250 µg/mL
MIC ([3]; Table 19 summary, sulfate): 3130 µg/mL
MIC P. aeruginosa ([3]; n = 1, sulfate): 3130 µg/mL
MIC P. aeruginosa ([3]; n = 2, sulfate): 3130 µg/mL
MIC ([4]; Table 19 summary of Example 33 and Example 35, sulfate): 1560 µg/mL
MIC E. coli ([4]; n = 1, sulfate): 1560 µg/mL
MIC E. coli ([4]; n = 2, sulfate): 1560 µg/mL
pH ([5]; sulfate): 1.60
MIC ([6]; Aspergillus niger, CMCC98003, n = 1, read-out: MIC Aspergillus niger): > 12500 µg/mL
MIC ([6]; Aspergillus niger, CMCC98003, n = 2, read-out: MIC Aspergillus niger): > 12500 µg/mL
MIC ([6]; Table 19 summary, sulfate): >12500 µg/mL
MIC ([7]; Table 19 summary, sulfate): 1560 µg/mL
MIC S. aureus ([7]; n = 1, sulfate): 1560 µg/mL
MIC S. aureus ([7]; n = 2, sulfate): 1560 µg/mL
Viable counts, Pseudomonas aeruginosa time kill study ([8]; 0.5 min, sulfate): <4.0 Log10 CFU/mL
Viable counts, Pseudomonas aeruginosa time kill study ([8]; 1 min, sulfate): <3.70 Log10 CFU/mL
Viable counts, Pseudomonas aeruginosa time kill study ([8]; 5 min): <3.52 Log10 CFU/mL
Viable counts, Pseudomonas aeruginosa time kill study ([8]; time 0, sulfate): 5.6 Log10 CFU/mL
Viable counts, Escherichia coli time kill study ([9]; 0.5 min, sulfate): 4.90 Log10 CFU/mL
Viable counts, Escherichia coli time kill study ([9]; 1 min, sulfate): 4.18 Log10 CFU/mL
Viable counts, Escherichia coli time kill study ([9]; 5 min, sulfate): 3.82 Log10 CFU/mL
Viable counts, Escherichia coli time kill study ([9]; time 0, sulfate): 4.92 Log10 CFU/mL
Viable counts, Staphylococcus aureus time kill study ([10]; 0.5 min, sulfate): 6.1 Log10 CFU/mL
Viable counts, Staphylococcus aureus time kill study ([10]; 1 min, sulfate): 6.12 Log10 CFU/mL
Viable counts, Staphylococcus aureus time kill study ([10]; 5 min, sulfate): 6.11 Log10 CFU/mL
Viable counts, Staphylococcus aureus time kill study ([10]; time 0, sulfate): 6.11 Log10 CFU/mL
Viable counts, Candida albicans time kill study ([11]; 0.5 min): 5.53 Log10 CFU/mL
Viable counts, Candida albicans time kill study ([11]; 1 min): 5.54 Log10 CFU/mL
Viable counts, Candida albicans time kill study ([11]; 5 min): 5.52 Log10 CFU/mL
Viable counts, Candida albicans time kill study ([11]; time 0): 5.6 Log10 CFU/mL

Reference: patent US20140357713A1, “ANTIMICROBIAL COMPOUNDS AND METHODS OF USE” (NexMed Holdings, Inc., priority 2012, published 2014)
